In ChEMBL document CHEMBL1153245, “A profile of the in vitro anti-tumor activity of imidazolium-based ionic liquids” (2010):

Key:
Assay type in all cases: functional
HOP-62 = assay: Anticancer activity against human HOP62 cells after 48 hrs by sulforhodamine B assay; details: Homo sapiens, HOP-62, 48 h
A549 = assay: Anticancer activity against human A549 cells assessed cell growth at 10 uM after 48 hrs by sulforhodamine B assay relative to control
SR [1] = assay: Anticancer activity against human SR cells after 48 hrs by sulforhodamine B assay
SF-295 = assay: Anticancer activity against human SF295 cells after 48 hrs by sulforhodamine B assay; details: Homo sapiens, SF-295, 48 h
OVCAR-4 = assay: Anticancer activity against human OVCAR4 cells after 48 hrs by sulforhodamine B assay
NCI-H322M = assay: Anticancer activity against human NCI-H322M cells after 48 hrs by sulforhodamine B assay
OVCAR-8 = assay: Anticancer activity against human OVCAR8 cells after 48 hrs by sulforhodamine B assay; details: Homo sapiens, OVCAR-8, 48 h
MCF7 = assay: Anticancer activity against human MCF7 cells after 48 hrs by sulforhodamine B assay
SR [2] = assay: Anticancer activity against human SR cells assessed cell growth at 10 uM after 48 hrs by sulforhodamine B assay relative to control
KM12 [3] = assay: Anticancer activity against human KM12 cells after 48 hrs by sulforhodamine B assay; details: Homo sapiens, KM12, 48 h
HOP-92 = assay: Anticancer activity against human HOP92 cells after 48 hrs by sulforhodamine B assay; details: Homo sapiens, HOP-92, 48 h
NCI-H23 [4] = assay: Anticancer activity against human NCI-H23 cells after 48 hrs by sulforhodamine B assay; details: Homo sapiens, NCI-H23, 48 h
COLO 205 [5] = assay: Anticancer activity against human COLO205 cells assessed cell growth at 10 uM after 48 hrs by sulforhodamine B assay relative to control
K562 = assay: Anticancer activity against human K562 cells after 48 hrs by sulforhodamine B assay
EKVX = assay: Anticancer activity against human EKVX cells after 48 hrs by sulforhodamine B assay; details: Homo sapiens, EKVX, 48 h
HCC 2998 = assay: Anticancer activity against human HCC2998 cells after 48 hrs by sulforhodamine B assay; details: Homo sapiens, HCC 2998, 48 h
U-251 [6] = assay: Anticancer activity against human U251 cells after 48 hrs by sulforhodamine B assay; details: Homo sapiens, U-251, 48 h
NCI-H226 = assay: Anticancer activity against human NCI-H226 cells after 48 hrs by sulforhodamine B assay; details: Homo sapiens, NCI-H226, 48 h
KM12 [7] = assay: Anticancer activity against human KM12 cells assessed cell growth at 10 uM after 48 hrs by sulforhodamine B assay relative to control
SW-620 = assay: Anticancer activity against human SW620 cells after 48 hrs by sulforhodamine B assay; details: Homo sapiens, SW-620, 48 h
COLO 205 [8] = assay: Anticancer activity against human COLO205 cells after 48 hrs by sulforhodamine B assay; details: Homo sapiens, COLO 205, 48 h
A498 = assay: Anticancer activity against human A498 cells after 48 hrs by sulforhodamine B assay; details: Homo sapiens, A498, 48 h
PC-3 = assay: Anticancer activity against human PC3 cells assessed cell growth at 10 uM after 48 hrs by sulforhodamine B assay relative to control
SF-268 = assay: Anticancer activity against human SF268 cells assessed cell growth at 10 uM after 48 hrs by sulforhodamine B assay relative to control
OVCAR-5 = assay: Anticancer activity against human OVCAR5 cells assessed cell growth at 10 uM after 48 hrs by sulforhodamine B assay relative to control
SK-MEL-5 = assay: Anticancer activity against human SK-MEL-5 cells after 48 hrs by sulforhodamine B assay; details: Homo sapiens, SK-MEL-5, 48 h
MDA-MB-468 = assay: Anticancer activity against human MDA-MB-468 cells after 48 hrs by sulforhodamine B assay
SK-OV-3 [9] = assay: Anticancer activity against human SKOV3 cells after 48 hrs by sulforhodamine B assay
LOX IMVI = assay: Anticancer activity against human LOXIMVI cells after 48 hrs by sulforhodamine B assay
SNB-75 = assay: Anticancer activity against human SNB75 cells after 48 hrs by sulforhodamine B assay
U-251 [10] = assay: Anticancer activity against human U251 cells assessed cell growth at 10 uM after 48 hrs by sulforhodamine B assay relative to control
UO-31 = assay: Anticancer activity against human UO31 cells assessed cell growth at 10 uM after 48 hrs by sulforhodamine B assay relative to control
MOLT-4 = assay: Anticancer activity against human MOLT4 cells assessed cell growth at 10 uM after 48 hrs by sulforhodamine B assay relative to control
T47D = assay: Anticancer activity against human T47D cells after 48 hrs by sulforhodamine B assay; details: Homo sapiens, T47D, 48 h
NCI-H23 [11] = assay: Anticancer activity against human NCI-H23 cells assessed cell growth at 10 uM after 48 hrs by sulforhodamine B assay relative to control
HT-29 = assay: Anticancer activity against human HT-29 cells assessed cell growth at 10 uM after 48 hrs by sulforhodamine B assay relative to control
SK-OV-3 [12] = assay: Anticancer activity against human SKOV3 cells assessed cell growth at 10 uM after 48 hrs by sulforhodamine B assay relative to control
HL-60(TB) = assay: Anticancer activity against human HL-60(TB) cells after 48 hrs by sulforhodamine B assay
ACHN = assay: Anticancer activity against human ACHN cells after 48 hrs by sulforhodamine B assay
SN12C = assay: Anticancer activity against human SN12C cells assessed cell growth at 10 uM after 48 hrs by sulforhodamine B assay relative to control
NCI/ADR-RES = assay: Anticancer activity against human NCI/ADR-RES cells after 48 hrs by sulforhodamine B assay; details: Homo sapiens, NCI/ADR-RES, 48 h
[13] = read-out: LC50 (the source's name)

Compound: CCCCCCCCCCCCCCCCCC[n+]1ccn(C)c1.[Cl-]
- GI50 (HOP-62): 0.967 µM
- CC50 (HOP-62; [13]): 7.8 µM
- Activity (A549): -15.21%
- GI50 (SR [1]): 0.154 µM
- CC50 (SR [1]; [13]): 3.79 µM
- GI50 (SF-295): 0.332 µM
- CC50 (SF-295; [13]): 5.59 µM
- GI50 (OVCAR-4; Homo sapiens, OVCAR-4, 48 h): 0.778 µM
- CC50 (OVCAR-4; [13]): > 100 µM
- LC50 (NCI-H322M): 5.95 µM
- GI50 (NCI-H322M; Homo sapiens, NCI-H322M, 48 h): 1.3 µM
- GI50 (OVCAR-8): 0.998 µM
- LC50 (OVCAR-8): 7.41 µM
- GI50 (MCF7): 0.356 µM
- LC50 (50% cell kill) (MCF7; Homo sapiens, MCF7, 48 h): 3.78 µM
- Activity (SR [2]): 4.33%
- GI50 (KM12 [3]): 0.275 µM
- CC50 (KM12 [3]; [13]): 2.96 µM
- GI50 (HOP-92): 1.14 µM
- CC50 (HOP-92; [13]): 6.85 µM
- GI50 (NCI-H23 [4]): 0.392 µM
- CC50 (NCI-H23 [4]; [13]): 7.72 µM
- Activity (COLO 205 [5]): 1.82%
- GI50 (K562): 0.385 µM
- CC50 (K562; Homo sapiens, K562, 48 h, read-out: LC50 (the source's name)): > 100 µM
- GI50 (EKVX): 0.649 µM
- CC50 (EKVX; [13]): 7.78 µM
- GI50 (HCC 2998): 0.296 µM
- CC50 (HCC 2998; [13]): 7.77 µM
- GI50 (U-251 [6]): 0.372 µM
- CC50 (U-251 [6]; [13]): 3.88 µM
- GI50 (NCI-H226): 0.869 µM
- LC50 (NCI-H226): 5.99 µM
- Activity (KM12 [7]): -47.8%
- GI50 (SW-620): 0.446 µM
- LC50 (SW-620): 4.72 µM
- GI50 (COLO 205 [8]): 0.285 µM
- CC50 (COLO 205 [8]; [13]): > 100 µM
- GI50 (A498): 1.07 µM
- CC50 (A498; [13]): 8.94 µM
- Activity (PC-3): -54.01%
- Activity (SF-268): -45.4%
- Activity (OVCAR-5): -61.54%
- GI50 (SK-MEL-5): 0.414 µM
- CC50 (SK-MEL-5; [13]): 3.97 µM
- GI50 (MDA-MB-468): 0.066 µM
- LC50 (MDA-MB-468; Homo sapiens, MDA-MB-468, 48 h): 7.25 µM
- GI50 (SK-OV-3 [9]; Homo sapiens, SK-OV-3, 48 h): 1.24 µM
- CC50 (SK-OV-3 [9]; [13]): > 100 µM
- GI50 (LOX IMVI): 0.189 µM
- CC50 (LOX IMVI; [13]): 1.48 µM
- GI50 (SNB-75): 0.473 µM
- CC50 (SNB-75; Homo sapiens, SNB-75, 48 h, read-out: LC50 (the source's name)): 7.41 µM
- Activity (U-251 [10]): -0.67%
- Activity (UO-31): -61.43%
- Activity (MOLT-4): 16.78%
- GI50 (T47D): 0.546 µM
- CC50 (T47D; [13]): > 100 µM
- Activity (NCI-H23 [11]): -48.94%
- Activity (HT-29): -42.14%
- Activity (SK-OV-3 [12]): 4.83%
- GI50 (HL-60(TB); Homo sapiens, HL-60, 48 h): 0.143 µM
- CC50 (HL-60(TB); [13]): 0.791 µM
- GI50 (ACHN): 0.446 µM
- LC50 (ACHN; Homo sapiens, ACHN, 48 h): 4.23 µM
- Activity (SN12C): -52.54%
- GI50 (NCI/ADR-RES): 1.66 µM
- LC50 (NCI/ADR-RES): > 100 µM
